# Reference: patent US4594340A, “25,26-dehydro-1α,24R-dihydroxycholecalciferol and 25,26-dehydro-1α,24S-dihydroxycholecalciferol and the epimeric mixture” (Hoffmann-La Roche Inc., priority 1984, dated 1986)
# Legend:
# HL-60 cells = experiment: Differentiation of HL-60 cells by nitroblue tetrazolium (NBT) reduction; assay type: cell-based, human (patient); details: Homo sapiens, 96 h; HL-60 cells, NBT test; read-out: HL-60 Test Differentiation NBT Test ED50
# Experimental: Cultures of HL-60 cells were established in the absence (control) or presence of various concentrations of the test compound. […] Proliferation was assessed by directly enumerating the increased number of tumor cells resulting from incubation. Viability was determined by dye exclusion technique to learn whether any of the compounds were lethal to cultured HL-60 cells. Cellular differentiation was evaluated by determining the number of cells which had acquired the enzymes necessary to support a respiratory burst and the functional ability to phagocytose (bind/internalize) particulate material from their environment; both activities being characteristic of mature macrophages and granulocytes,
# Experimental compounds were dissolved in sufficient ethanol to yield stock solutions of 1×10^-2 molar. Reduced lighting was employed when working with compounds and stock solutions were stored in the dark at -20° in an argon atmosphere. Compounds were diluted with tissue culture medium and added to flasks containing HL-60 cells to achieve the final concentrations described in each experiment.
# The promyelocytic (HL-60) tumor cell line was derived from a patient with acute promyelocytic leukemia. HL-60 cells were maintained in liquid culture by serial weekly passage in tissue culture medium. In any experiment, three replicate flasks were incubated without compound (control) or in the presence of varying concentrations of compound. […]
# Quantitation of differentiated cells was done by the biochemical method of nitroblue tetrazolium (NBT) reduction. Sufficient cells were pooled from replicate cultures, centrifuged at 220×g, washed once with serum-free tissue culture medium, and resuspended to 1×10^6 cells per ml in Ca^++ --Mg^++ -deficient phosphate buffered saline (prepared by supplementing Ca^++ --Mg^++ -free phosphate buffered saline (PBS) to 10% v/v with heat-inactivated fetal bovine serum). Nitroblue tetrazolium was dissolved at 1 mg per ml in Ca^++ --Mg^++ -deficient PBS with gentle heating and mixing. Tetradecanoyl phorbol acetate (TPA) was dissolved at 1 mg per ml in ethanol and stored at -20° C. Just prior to use, a working solution of TPA was prepared by diluting the stock concentration 100-fold with Ca^++ --Mg^++ -deficient PBS. The test was done in 12×75 mm tubes by adding 0.5 ml Ca^++ --Mg^++ -deficient PBS, 1.0 ml of HL-60 cells, 0.5 ml of NBT solution, and 0.02 ml of the working TPA solution. After mixing, the tubes were incubated in a 37° water bath for 25 minutes then transferred to ice. Undifferentiated and differentiated cells present in any sample were determined microscopically by surveying 200-400 cells per sample or by cytofluorograph by surveying greater than 30,000 cells. Cells without pigmented granules (clear cells) were judged to be undifferentiated while those containing greater than 3 blue-black formazan granules were scored as differentiated. […] Results are expressed as the percentage of differentiated cells present in any sample as calculated according to the formula: [formula]
# [1] = Antirachitogenic increase in tibia ash in chicks on vitamin D-deficient diet; assay type: in vivo, chick (White Leghorn cockerels); details: 27 ng, orally, 21 consecutive days
# Experimental: **Oneday-old White Leghorn cockerels were placed on a vitamin Ddeficient
# diet which contained 1% calcium and 0.7% phosphorus and were housed under
# ultravioletfree lighting (General Electric F40G0 gold fluorescent lights)
# The test compound was dissolved in propylene glycol and administered
# orally in a volume of 0.2 ml/day for 21 consecutive days. Controls were
# treated with vehicle alone. Chicks were autopsied on the day after the […]
smiles,measurement,setting,value
"C=C1/C(=C\C=C2/CCC[C@]3(C)[C@@H]([C@H](C)CCCC(C)(C)O)CC[C@@H]23)C[C@@H](O)C[C@@H]1O [1α,25-Dihydroxycholecalciferol, reference compound]",EC50,HL-60 cells,0.012 µM
same,Antirachitogenic Increase in Tibia Ash in Chicks,[1],61%
